Values after ≈ are worked out from the molar mass of the structure shown.
How the values were obtained:
[1] = tested on: Mycobacterium tuberculosis H37Ra ATCC 25177; assay: In vitro antimycobacterial evaluation (alamarBlue, MIC) against M. tuberculosis; type: cell-based; settings: 168 h, M. tuberculosis H37Ra ATCC 25177, MIC = 90% or greater (IC90) reduction of growth, 7 days
Method: The evaluation of the in vitro antimycobacterial activity of the compounds was performed against Mycobacterium tuberculosis H37Ra ATCC 25177 (MT), M. kansasii DSM 44162 (MK) and M. smegmatis ATCC 700084 (MS), see Table 1. To lower risk and make manipulation in the laboratory easier, surrogate model pathogens for M. tuberculosis can be used in laboratory studies. Avirulent M. tuberculosis strain H37Ra is very closely related to and has similar pathology as human-infecting M. tuberculosis strains, making it a good model for study especially because of the lower risk for laboratory workers. M. kansasii, the most virulent of the NTM, causes nontuberculous mycobacterial lung infections, which are now very common, and can be indistinguishable from tuberculosis. M. smegmatis is an ideal representative of a fast-growing nonpathogenic microorganism, particularly useful in studying basic cellular processes of special relevance to pathogenic mycobacteria. Therefore additionally M. kansasii and M. smegmatis were chosen as model species for screening of prospective antimycobacterial drugs to control mycobacterial diseases. The potency of the compounds was expressed as the minimum inhibitory concentration (MIC) that is defined for mycobacteria as 90% or greater (IC90) reduction of growth in comparison with the control.
Mycobacterium tuberculosis H37Ra ATCC 25177 was grown in Middlebrook broth (MB), supplemented with Oleic-Albumin-Dextrose-Catalase (OADC) supplement (Becton, Dickinson & Comp., Franklin Lakes, NJ, USA) and mycobactin J (2 μg/mL). At log phase growth, a culture sample (10 mL) was centrifuged at 15,000 rpm/20 min using a bench top centrifuge (Model CR 4-12, Jouan Inc., Winchester, VA, USA). Following the removal of the supernatant, the pellet was washed in fresh Middlebrook 7H9GC broth and re-suspended in fresh, ODAC-supplemented MB (10 mL). The turbidity was adjusted to match McFarland standard No. 1 (3 × 10^8 cfu) with MB broth. A further 1:20 dilution of the culture was then performed in MB broth. The antimicrobial susceptibility of M. tuberculosis was investigated in a 96-well plate format. In these experiments, sterile deionised water (300 µL) was added to all outer-perimeter wells of the plates to minimize evaporation of the medium in the test wells during incubation. Each evaluated compound (100 µL) was incubated with M. tuberculosis (100 µL). Dilutions of each compound were prepared in duplicate. For all synthesized compounds, final concentrations ranged from 1000 μg/mL to 8 μg/mL. All compounds were dissolved in DMSO, and subsequent dilutions were made in supplemented MB. The plates were sealed with parafilm and incubated at 37 °C for 7 days. Following incubation, a 10% addition of alamarBlue (AbD Serotec, Kidlington, UK) was mixed into each well, and readings at 570 nm and 600 nm were taken, initially for background subtraction and subsequently after 24 h re-incubation. The background subtraction is necessary for strongly coloured compounds, where the colour may interfere with the interpretation of any colour change. For non-interfering compounds, a blue colour in the well was interpreted as the absence of growth, and a pink colour was scored as growth.
The minimum inhibitory concentration (MIC) was defined as the lowest concentration of the compound at which no visible bacterial growth was observed, i.e., the MIC is the lowest concentration that prevented a visual colour change from blue to pink. MIC is defined for mycobacteria as 90% or greater (IC90) reduction of growth in comparison with the control. The MIC/IC90 value is routinely and widely used in bacterial assays and is a standard detection limit according to the Clinical and Laboratory Standards Institute (CLSI, www.clsi.org). Rifampicin and isoniazid (Sigma-Aldrich) were used as the standards as they are clinically used antimycobacterial drugs.

[2] = tested on: Mycobacterium kansasii DSM 44162; assay: In vitro antimycobacterial evaluation (broth dilution micro-method, MIC) against M. kansasii; type: cell-based; settings: DSM44162, 168 h, M. kansasii DSM 44162, MIC = IC90, 7 days incubation, visual
[3] = tested on: human monocytic leukemia THP-1 cells; assay: In vitro antiproliferative assay (WST-1); settings: THP-1, 24 h, read-out: IC50 (antiproliferative activity)
Method: Human monocytic leukemia THP-1 cells were used for in vitro antiproliferative assay. Cells were obtained from the European Collection of Cell Cultures (ECACC, Salisbury, UK) and routinely cultured in RPMI 1640 medium supplemented with 10% fetal bovine serum, 2% L-glutamine, 1% penicillin and streptomycin at 37 °C with 5% CO2. Cells were passaged at approximately one-week intervals. Antiproliferative activity of the compounds was determined using a Water Soluble Tetrazolium Salts-1 (WST-1, 2-(4-iodophenyl)-3-(4-nitrophenyl)-5-(2,4-disulfophenyl)-2H-tetrazolium) assay kit (Roche Diagnostics, Mannheim, Germany) according to the manufacturer’s instructions. The tested compounds were dissolved in DMSO and added in five increasing concentrations (0.37, 1.1, 3.3, 10 and 30 μM) to the cell suspension in the culture RPMI 1640 medium. The maximum concentration of DMSO in the assays never exceeded 0.1%. Subsequently, the cells were incubated for 24 h at 37 °C with 5% CO2. For WST-1 assays, cells were seeded into 96-well plates (5 × 10^4 cells/well in 100 μL culture medium) in triplicate in serum-free RPMI 1640 medium, and measurements were taken 24 h after the treatment with the compounds. The median inhibition concentration values, IC50, were deduced through the production of a dose-response curve. All data were evaluated using GraphPad Prism 5.00 software (GraphPad Software, San Diego, CA, USA).

[4] = tested on: M. smegmatis ATCC 700084; assay: In vitro antimycobacterial evaluation (broth dilution micro-method, MIC) against M. smegmatis; type: cell-based; settings: Mycolicibacterium smegmatis, ATCC700084, 72 h; Mycobacterium smegmatis ATCC 700084; MIC = IC90; 3 days incubation, visual

O=C(Nc1ccccc1)c1c(O)ccc2ccccc12 [Compound 1, 2-Hydroxy-N-phenylnaphthalene-1-carboxamide]
MIC [1]: 94 µM (≈ 24.7 µg/mL) | MIC [2]: 15 µM (≈ 3.95 µg/mL) | IC50 [3]: > 30 µM

COc1ccccc1NC(=O)c1c(O)ccc2ccccc12 [Compound 2a, 2-hydroxy-N-(2-methoxyphenyl)naphtha-lene-1-carboxamide]
MIC [1]: 852 µM (≈ 250 µg/mL) | MIC [4]: 873 µM (≈ 256 µg/mL) | MIC [2]: 873 µM (≈ 256 µg/mL)

COc1cccc(NC(=O)c2c(O)ccc3ccccc23)c1 [Compound 2b, 2-hydroxy-N-(3-methoxyphenyl)naphthalene-1-carboxamide]
MIC [1]: 852 µM (≈ 250 µg/mL)

COc1ccc(NC(=O)c2c(O)ccc3ccccc23)cc1 [Compound 2c, 2-hydroxy-N-(4-methoxyphenyl)naphthalene-1-carboxamide]
MIC [1]: 852 µM (≈ 250 µg/mL)

CCOc1cccc(NC(=O)c2c(O)ccc3ccccc23)c1 [Compound 3b, N-(3-Ethoxyphenyl)-2-hydroxynaphthalene-1-carboxamide]
MIC [1]: 813 µM (≈ 250 µg/mL) | MIC [4]: 416 µM (≈ 128 µg/mL) | MIC [2]: 208 µM (≈ 63.9 µg/mL)

CCCOc1ccccc1NC(=O)c1c(O)ccc2ccccc12 [Compound 4a, 2-Hydroxy-N-(2-propoxyphenyl)naphthalene-1-carboxamide]
MIC [1]: 37 µM (≈ 11.9 µg/mL) | MIC [4]: 796 µM (≈ 256 µg/mL) | MIC [2]: 99 µM (≈ 31.8 µg/mL) | IC50 [3]: > 30 µM

CCCOc1cccc(NC(=O)c2c(O)ccc3ccccc23)c1 [Compound 4b, 2-Hydroxy-N-(3-propoxyphenyl)naphthalene-1-carboxamide]
MIC [1]: 46 µM (≈ 14.8 µg/mL) | MIC [4]: 398 µM (≈ 128 µg/mL) | MIC [2]: 199 µM (≈ 64 µg/mL) | IC50 [3]: 8.97 ± 0.34 µM

CCCCOc1ccccc1NC(=O)c1c(O)ccc2ccccc12 [Compound 5a, N-(2-Butoxyphenyl)-2-hydroxynaphthalene-1-carboxamide]
MIC [1]: 745 µM (≈ 250 µg/mL) | MIC [4]: 763 µM (≈ 256 µg/mL) | MIC [2]: 763 µM (≈ 256 µg/mL) | IC50 [3]: > 30 µM

CCCCOc1ccc(NC(=O)c2c(O)ccc3ccccc23)cc1 [Compound 5c, N-(4-Butoxyphenyl)-2-hydroxynaphthalene-1-carboxamide]
MIC [1]: 745 µM (≈ 250 µg/mL) | MIC [4]: 763 µM (≈ 256 µg/mL) | MIC [2]: 95 µM (≈ 31.9 µg/mL) | IC50 [3]: > 30 µM

CC(C)Oc1ccccc1NC(=O)c1c(O)ccc2ccccc12 [Compound 6a, 2-Hydroxy-N-[2-(prop-2-yloxy)phenyl]naphthalene-1-carboxamide]
MIC [1]: 31 µM (≈ 9.96 µg/mL) | MIC [4]: 796 µM (≈ 256 µg/mL) | MIC [2]: 99 µM (≈ 31.8 µg/mL) | IC50 [3]: > 30 µM

CC(C)Oc1cccc(NC(=O)c2c(O)ccc3ccccc23)c1 [Compound 6b, 2-Hydroxy-N-[3-(prop-2-yloxy)phenyl]naphthalene-1-carboxamide]
MIC [1]: 778 µM (≈ 250 µg/mL) | MIC [4]: 398 µM (≈ 128 µg/mL) | MIC [2]: 199 µM (≈ 64 µg/mL) | IC50 [3]: 8.84 ± 0.22 µM

CCC(C)Oc1ccccc1NC(=O)c1c(O)ccc2ccccc12 (centres unmarked) [Compound 7a, N-[2-(But-2-yloxy)phenyl]-2-hydroxynaphthalene-1-carboxamide]
MIC [1]: 44 µM (≈ 14.8 µg/mL) | MIC [4]: 763 µM (≈ 256 µg/mL) | MIC [2]: 95 µM (≈ 31.9 µg/mL) | IC50 [3]: 8.35 ± 1.25 µM

O=C(Nc1ccccc1)c1ccc2ccccc2c1O [Compound 8, 1-Hydroxy-N-phenylnaphthalene-2-carboxamide]
MIC [1]: 97 µM (≈ 25.5 µg/mL) | MIC [4]: 243 µM (≈ 64 µg/mL) | MIC [2]: 15 µM (≈ 3.95 µg/mL) | IC50 [3]: > 30 µM

COc1ccccc1NC(=O)c1ccc2ccccc2c1O [Compound 9a, 1-hydroxy-N-(2-methoxyphenyl)naphtha-lene-2-carboxamide]
MIC [1]: 852 µM (≈ 250 µg/mL) | MIC [4]: 873 µM (≈ 256 µg/mL) | MIC [2]: 873 µM (≈ 256 µg/mL)

COc1cccc(NC(=O)c2ccc3ccccc3c2O)c1 [Compound 9b, 1-hydroxy-N-(3-methoxyphenyl)naphthalene-2-carboxamide]
MIC [1]: 852 µM (≈ 250 µg/mL) | MIC [4]: 873 µM (≈ 256 µg/mL) | MIC [2]: 873 µM (≈ 256 µg/mL)

COc1ccc(NC(=O)c2ccc3ccccc3c2O)cc1 [Compound 9c, 1-hydroxy-N-(4-methoxyphenyl)naphthalene-2-carboxamide]
MIC [1]: 852 µM (≈ 250 µg/mL) | MIC [4]: 873 µM (≈ 256 µg/mL) | MIC [2]: 873 µM (≈ 256 µg/mL)

CCOc1ccccc1NC(=O)c1ccc2ccccc2c1O [Compound 10a, N-(2-Ethoxyphenyl)-1-hydroxynaphthalene-2-carboxamide]
MIC [1]: 813 µM (≈ 250 µg/mL) | MIC [4]: 832 µM (≈ 256 µg/mL) | MIC [2]: 832 µM (≈ 256 µg/mL)

CCOc1cccc(NC(=O)c2ccc3ccccc3c2O)c1 [Compound 10b, N-(3-Ethoxyphenyl)-1-hydroxynaphthalene-2-carboxamide]
MIC [1]: 813 µM (≈ 250 µg/mL) | MIC [4]: 832 µM (≈ 256 µg/mL) | MIC [2]: 52 µM (≈ 16 µg/mL) | IC50 [3]: 3.02 ± 0.96 µM

CCOc1ccc(NC(=O)c2ccc3ccccc3c2O)cc1 [Compound 10c, N-(4-Ethoxyphenyl)-1-hydroxynaphthalene-2-carboxamide]
MIC [1]: 813 µM (≈ 250 µg/mL) | MIC [4]: 832 µM (≈ 256 µg/mL) | MIC [2]: 832 µM (≈ 256 µg/mL)

CCCOc1ccccc1NC(=O)c1ccc2ccccc2c1O [Compound 11a, 1-Hydroxy-N-(2-propoxyphenyl)naphthalene-2-carboxamide]
MIC [1]: 778 µM (≈ 250 µg/mL) | MIC [4]: 796 µM (≈ 256 µg/mL) | MIC [2]: 24 µM (≈ 7.71 µg/mL)

CCCOc1ccc(NC(=O)c2ccc3ccccc3c2O)cc1 [Compound 11c, 1-Hydroxy-N-(4-propoxyphenyl)naphthalene-2-carboxamide]
MIC [1]: 778 µM (≈ 250 µg/mL) | MIC [4]: 796 µM (≈ 256 µg/mL) | MIC [2]: 24 µM (≈ 7.71 µg/mL) | IC50 [3]: > 30 µM

CCCCOc1ccccc1NC(=O)c1ccc2ccccc2c1O [Compound 12a, N-(2-Butoxyphenyl)-1-hydroxynaphthalene-2-carboxamide]
MIC [1]: 745 µM (≈ 250 µg/mL) | MIC [4]: 763 µM (≈ 256 µg/mL) | MIC [2]: 763 µM (≈ 256 µg/mL)

CCCCOc1ccc(NC(=O)c2ccc3ccccc3c2O)cc1 [Compound 12c, N-(4-Butoxyphenyl)-1-hydroxynaphthalene-2-carboxamide]
MIC [1]: 745 µM (≈ 250 µg/mL) | MIC [4]: 763 µM (≈ 256 µg/mL) | MIC [2]: 23 µM (≈ 7.71 µg/mL) | IC50 [3]: > 30 µM

CC(C)Oc1ccccc1NC(=O)c1ccc2ccccc2c1O [Compound 13a, 1-Hydroxy-N-[2-(prop-2-yloxy)phenyl]naphthalene-2-carboxamide]
MIC [1]: 778 µM (≈ 250 µg/mL) | MIC [4]: 796 µM (≈ 256 µg/mL) | MIC [2]: 796 µM (≈ 256 µg/mL)

CC(C)Oc1cccc(NC(=O)c2ccc3ccccc3c2O)c1 [Compound 13b, 1-Hydroxy-N-[3-(prop-2-yloxy)phenyl]naphthalene-2-carboxamide]
MIC [1]: 389 µM (≈ 125 µg/mL) | MIC [4]: 796 µM (≈ 256 µg/mL) | MIC [2]: 796 µM (≈ 256 µg/mL) | IC50 [3]: 4.32 ± 0.74 µM

CC(C)Oc1ccc(NC(=O)c2ccc3ccccc3c2O)cc1 [Compound 13c, 1-Hydroxy-N-[4-(prop-2-yloxy)phenyl]naphthalene-2-carboxamide]
MIC [1]: 778 µM (≈ 250 µg/mL) | MIC [4]: 796 µM (≈ 256 µg/mL) | MIC [2]: 49 µM (≈ 15.7 µg/mL) | IC50 [3]: 9.39 ± 1.39 µM

CCC(C)Oc1ccccc1NC(=O)c1ccc2ccccc2c1O (centres unmarked) [Compound 14a, N-[2-(But-2-yloxy)phenyl]-1-hydroxynaphthalene-2-carboxamide]
MIC [1]: 745 µM (≈ 250 µg/mL) | MIC [4]: 763 µM (≈ 256 µg/mL) | MIC [2]: 47 µM (≈ 15.8 µg/mL) | IC50 [3]: 9.03 ± 1.18 µM

CCC(C)Oc1ccc(NC(=O)c2ccc3ccccc3c2O)cc1 (centres unmarked) [Compound 14c, N-[4-(But-2-yloxy)phenyl]-1-hydroxynaphthalene-2-carboxamide]
MIC [1]: 745 µM (≈ 250 µg/mL) | MIC [4]: 12 µM (≈ 4.02 µg/mL) | MIC [2]: 23 µM (≈ 7.71 µg/mL) | IC50 [3]: 3.41 ± 0.41 µM

NNC(=O)c1ccncc1 [INH, isoniazid, reference compound]
MIC [1]: 58 µM (≈ 7.95 µg/mL) | IC50 [3]: > 30 µM

CO[C@H]1/C=C/O[C@@]2(C)Oc3c(C)c(O)c4c(O)c(c(/C=N/N5CCN(C)CC5)c(O)c4c3C2=O)NC(=O)/C(C)=C\C=C\[C@H](C)[C@H](O)[C@@H](C)[C@@H](O)[C@@H](C)[C@H](OC(C)=O)[C@@H]1C [RIF, rifampicin, reference compound]
MIC [1]: 10 µM (≈ 8.23 µg/mL) | MIC [4]: 19 µM (≈ 15.6 µg/mL) | MIC [2]: 0.15 µM (≈ 0.123 µg/mL) | IC50 [3]: > 30 µM

— PMC6273036, “N-Alkoxyphenylhydroxynaphthalenecarboxamides and Their Antimycobacterial Activity” (Molecules, 2016)
